Data from patent US8945856B2, “Affinity-based detection of biological targets” (priority 2005, dated 2015).

Legend:
botulinum toxoid A = botulinum toxoid A (Clostridium botulinum, UniProt P0DPI0); type: binding
Salmonella = type: binding
[1] = tested on: E. coli lipopolysaccharide (LPS); assay: Fiber optic biosensor 5-minute competitive assay with polymyxin B as capture molecule (James et al.); type: binding; conditions: assuming LPS monomer 4-20 kDa and 1.2×10^6 LPS molecules per cell
[2] = tested on: E. coli lipopolysaccharide (LPS); conditions: 5-minute competitive assays; cited from earlier work
E. coli cells = conditions: total analysis time 2.5 hours; cited from earlier work
E. coli = type: binding
[3] = tested on: heat-killed E. coli O157:H7 cells; assay: Array Biosensor direct assay: Cy5-labeled cells binding to immobilized magainin; conditions: magainin I covalently (directly) immobilized via GMBS
[4] = tested on: heat-killed S. typhimurium cells; assay: as above
Campylobacter sp. = assay: Array Biosensor binding to directly immobilized magainin; conditions: analogous conditions
Bacillus sp. = assay: as above; conditions: analogous conditions

botulinum toxoid A, sequence (P0DPI0 whole entry, looked up): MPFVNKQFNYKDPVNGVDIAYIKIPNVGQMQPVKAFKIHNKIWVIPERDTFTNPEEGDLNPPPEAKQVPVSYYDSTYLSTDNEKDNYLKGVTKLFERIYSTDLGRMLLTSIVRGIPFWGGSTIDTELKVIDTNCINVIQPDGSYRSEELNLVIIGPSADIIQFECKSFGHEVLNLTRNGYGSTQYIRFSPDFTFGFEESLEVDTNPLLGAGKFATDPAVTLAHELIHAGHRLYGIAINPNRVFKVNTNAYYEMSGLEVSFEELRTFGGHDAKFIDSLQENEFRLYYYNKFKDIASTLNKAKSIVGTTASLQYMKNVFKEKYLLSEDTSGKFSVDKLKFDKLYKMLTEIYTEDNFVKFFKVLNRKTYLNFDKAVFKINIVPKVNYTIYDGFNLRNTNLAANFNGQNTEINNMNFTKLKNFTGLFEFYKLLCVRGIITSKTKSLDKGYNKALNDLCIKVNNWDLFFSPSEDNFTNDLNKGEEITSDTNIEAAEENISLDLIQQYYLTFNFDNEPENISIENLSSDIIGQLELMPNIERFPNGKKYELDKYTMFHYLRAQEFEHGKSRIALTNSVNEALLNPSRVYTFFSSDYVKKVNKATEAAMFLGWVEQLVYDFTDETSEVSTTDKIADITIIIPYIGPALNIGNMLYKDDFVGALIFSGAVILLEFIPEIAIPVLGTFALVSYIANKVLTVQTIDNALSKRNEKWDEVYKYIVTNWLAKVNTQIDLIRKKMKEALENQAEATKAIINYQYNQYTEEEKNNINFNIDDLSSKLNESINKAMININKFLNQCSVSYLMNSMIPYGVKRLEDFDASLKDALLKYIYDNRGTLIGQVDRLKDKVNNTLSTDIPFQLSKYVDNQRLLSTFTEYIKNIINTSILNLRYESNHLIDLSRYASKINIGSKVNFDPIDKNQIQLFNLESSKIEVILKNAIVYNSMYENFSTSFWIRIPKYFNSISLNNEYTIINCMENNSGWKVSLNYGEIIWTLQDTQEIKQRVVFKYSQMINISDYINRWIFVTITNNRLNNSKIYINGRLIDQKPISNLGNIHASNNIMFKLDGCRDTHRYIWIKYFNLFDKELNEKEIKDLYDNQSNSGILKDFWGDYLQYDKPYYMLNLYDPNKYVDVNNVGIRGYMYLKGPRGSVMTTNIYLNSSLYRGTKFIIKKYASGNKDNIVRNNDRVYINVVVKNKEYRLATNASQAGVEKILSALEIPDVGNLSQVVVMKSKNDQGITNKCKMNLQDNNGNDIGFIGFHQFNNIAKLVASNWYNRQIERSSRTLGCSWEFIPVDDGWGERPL

For Polymyxin B, the “Binding of botulinum toxoid to immobilized capture species” value (shortened to “Binding of botulinum toxoid”) (botulinum toxoid A) was “less strongly”, the “LOD for Salmonella” value (Salmonella) was 10^5 cfu/ml and the “Detection limit calculated as number of bacteria per mL” value [1] was 3×10^5-1.3×10^6 cells/mL. For the same substance, the “Detection limit for E. coli LPS” value [2] was “approx. 10 ng/mL”.

For “Cecropin P1 (SWLSKTAKKLENSAKKRISEGIAIAIQGGPR; Cecropin-P1; UniProt P14661 14-44, looked up)”, the “Detection limit for E. coli” value (E. coli cells) is listed as ~10^7 cfu/mL.

In the case of Bactenecin, the “LOD for E. coli” value (E. coli) is reported as 10^2-10^3 cfu/ml.

In the case of “Magainin I (GIGKFLHSAGKFGKAFVGEIMKS; listed as Xenopus laevis)”, the “Detection limit for labelled E. coli” value [3] is reported as 1.6×10^5 cell/mL, the “Detection limit for labelled S. typhimurium” value ([4]; magainin I covalently (directly) immobilized via GMBS, Cy5-labeled heat-killed cells) is reported as 6.5×10^4 cell/mL and the “Concentration in solution during immobilization step at which bacterial binding saturated” value ([4]; patterning solution, target bacteria) is reported as 0.4 mM. For the same substance, the “Binding of botulinum toxoid” value (botulinum toxoid A) was “not”, the “Binding of Campylobacter sp.” value (Campylobacter sp.) was “only trace binding” and the “Binding of Bacillus sp.” value (Bacillus sp.) was “only trace binding”.

For “Cecropin A (KWKLFKKIEKVGQNIRDGIIKAGPAVAVVGQATQIAK)”, the “Binding of botulinum toxoid” value (botulinum toxoid A) was “bound”, the “Estimated limit of detection compared with antibody-based assays” value (botulinum toxoid A) was “significantly lower” and the “Preferential binding, toxoid A versus toxoid B” value (botulinum toxoid A) was “bound preferentially by toxoid A”.
